Legend:
[1] = target: T1, muscle glycogen phosphorylase b (Mus musculus, UniProt Q9WUB3); test: Glycogen phosphorylase assay; type: biochemical; settings: concentrations up to 100 μM; data not shown
T1 construct: made in house; host or cells: E. coli
Excerpt: (§1) Supplemental Experimental Procedures:
(§2) Materials. Compounds 2 and 13 were synthesised by PeakDale Molecular and Natalia Shpiro (MRC-PPU, Dundee), respectively, as described previously (Gomez-Galeno, et al., 2010).
(§3) A769662 was from Selleck Chemicals and AICAR from Toronto Research Chemicals. Mouse FBP1, PYGM and PFK1 (muscle isoform) were cloned, expressed and purified from E.coli using standard techniques. AMPD was purified from chicken muscle (Smiley, et al., 1967).
(§4) PP2Cα expressed in E.coli was from the Division of Signal Transduction Therapy (DSTT, Dundee). Peptides were synthesised by GL Biochem (Shanghai). [γ-32P]-ATP, [1-14C]-acetic acid and [9,10-3H(N)]-palmitic acid were from PerkinElmer. pS79 ACC1 (#3661), ACC1 […]
(§5) antibodies were purchased from Cell Signaling Technology. Anti-AMPKα1 (07-350) and AMPKα2 (07-363) used for immunoblotting were from Merck-Millipore. Anti-AMPKγ1 was from Origene (clone Y308). Anti-AMPKγ2 was from Epitomics (S1562). Anti-tubulin (B-5-1-2), anti-FLAG (F7425) and anti-FLAG M2 agarose were from Sigma. Anti-HA (HA.11) was from Covance Research Products. AMPKα1/2 antibodies used for immunoprecipitation kinase assays were described previously (Sakamoto, et al., 2006). […]
(§6) AMPK preparations. […] Isolated human AMPKα subunits were expressed as N-terminal GST-fusions in E.coli and activated as described for heterotrimeric complexes. […]

[2] = tested on: AMP deaminase-1; test: AMPD1 assay; type: biochemical, chicken; settings: concentrations up to 100 μM; data not shown
Excerpt: as §1, §2, §3, §4, §5, §6

[3] = target: T2, WT FLAG-α2, β1, and γ1 in COS1 cells (Homo sapiens, UniProt P54619+P54646); test: Kinase activity in anti-FLAG immunoprecipitates from treated COS1 cells; type: cell-based; settings: up to 100 μM, 1 h
T2 construct: expressed in transfected cells; host or cells: COS-1 cells
Excerpt: (Needleman and Wunsch, 1970) and edited using ESPript (Gouet, et al., 2003). Secondary structure was derived from PDBID 2Y94. The phosphotransferase domain is shaded green (T-loop phosphorylation site is indicated with a star), the autoinhibitory domain in blue and the C-terminal domain in yellow. Regulatory elements in the α-linker are also indicated: α-hook in pink and α-RIMs in orange. Black lines indicate the position of the epitopes recognised by α-subunit specific antibodies used in this study. (B) COS-1 cells were seeded into 6-well plates and transiently transfected with pCMV-AMPKβ1, pCMV-AMPKγ1 and either pCMV-FLAG-AMPKα2 WT or pCMV-FLAG-AMPKα2/α1 LOOP chimera using FuGENE HD.
After 24 h cells were treated with the indicated compounds for 1 h and kinase activity determined in anti-FLAG immunoprecipitates under standard conditions. […]
Mouse hepatocytes were incubated with the indicated compounds in the absence (Resting) or presence of 10 mU/ml insulin for 60 min. Lysates were analysed by Western blotting using the indicated antibodies. […]
Yeast acetate CoA ligase (Sigma) was assayed in reactions containing 50 mM TES pH 7.4, 0.1 mM EDTA, 5 mM MgCl2, 4 mM ATP, 0.2 mM coenzyme A, 5 mM DTT and increasing concentrations of C2 and C13 (0 – 100 μM). The formation of pyrophosphate (PPi) was monitored by reduction of PPi-molybdate complexes as described in Methods. […]

T2 sequence (P54646 whole entry): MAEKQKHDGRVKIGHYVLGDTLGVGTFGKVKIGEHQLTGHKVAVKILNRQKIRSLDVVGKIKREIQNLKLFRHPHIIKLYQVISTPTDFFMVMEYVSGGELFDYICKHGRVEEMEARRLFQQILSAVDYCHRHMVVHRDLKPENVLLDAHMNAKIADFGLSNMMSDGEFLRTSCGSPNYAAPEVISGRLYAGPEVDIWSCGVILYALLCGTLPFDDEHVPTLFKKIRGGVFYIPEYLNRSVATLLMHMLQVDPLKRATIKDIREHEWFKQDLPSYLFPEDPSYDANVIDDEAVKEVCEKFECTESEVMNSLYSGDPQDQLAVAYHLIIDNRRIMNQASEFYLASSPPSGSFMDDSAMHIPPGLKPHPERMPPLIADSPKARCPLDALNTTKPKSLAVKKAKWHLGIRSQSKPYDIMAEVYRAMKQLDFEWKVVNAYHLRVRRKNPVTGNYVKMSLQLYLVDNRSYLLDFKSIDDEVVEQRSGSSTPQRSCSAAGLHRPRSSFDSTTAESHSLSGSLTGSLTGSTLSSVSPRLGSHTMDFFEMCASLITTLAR
T2 sequence (Q9Y478 whole entry partner): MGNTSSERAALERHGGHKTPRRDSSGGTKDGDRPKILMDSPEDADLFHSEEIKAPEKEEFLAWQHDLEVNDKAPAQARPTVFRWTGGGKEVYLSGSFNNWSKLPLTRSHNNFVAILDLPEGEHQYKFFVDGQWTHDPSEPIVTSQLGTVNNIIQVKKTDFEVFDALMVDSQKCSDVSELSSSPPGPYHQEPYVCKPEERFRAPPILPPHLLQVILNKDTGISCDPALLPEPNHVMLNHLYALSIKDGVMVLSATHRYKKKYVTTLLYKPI
T2 sequence (P54619 whole entry): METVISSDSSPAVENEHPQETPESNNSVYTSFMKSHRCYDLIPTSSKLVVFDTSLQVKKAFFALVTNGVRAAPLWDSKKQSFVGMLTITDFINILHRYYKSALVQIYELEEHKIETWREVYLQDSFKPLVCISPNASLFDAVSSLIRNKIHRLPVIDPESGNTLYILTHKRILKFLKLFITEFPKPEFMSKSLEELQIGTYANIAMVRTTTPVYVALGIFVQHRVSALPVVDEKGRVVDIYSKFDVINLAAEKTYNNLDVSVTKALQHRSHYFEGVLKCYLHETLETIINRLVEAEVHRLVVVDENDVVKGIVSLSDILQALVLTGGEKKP
T1 sequence (Q9WUB3 whole entry): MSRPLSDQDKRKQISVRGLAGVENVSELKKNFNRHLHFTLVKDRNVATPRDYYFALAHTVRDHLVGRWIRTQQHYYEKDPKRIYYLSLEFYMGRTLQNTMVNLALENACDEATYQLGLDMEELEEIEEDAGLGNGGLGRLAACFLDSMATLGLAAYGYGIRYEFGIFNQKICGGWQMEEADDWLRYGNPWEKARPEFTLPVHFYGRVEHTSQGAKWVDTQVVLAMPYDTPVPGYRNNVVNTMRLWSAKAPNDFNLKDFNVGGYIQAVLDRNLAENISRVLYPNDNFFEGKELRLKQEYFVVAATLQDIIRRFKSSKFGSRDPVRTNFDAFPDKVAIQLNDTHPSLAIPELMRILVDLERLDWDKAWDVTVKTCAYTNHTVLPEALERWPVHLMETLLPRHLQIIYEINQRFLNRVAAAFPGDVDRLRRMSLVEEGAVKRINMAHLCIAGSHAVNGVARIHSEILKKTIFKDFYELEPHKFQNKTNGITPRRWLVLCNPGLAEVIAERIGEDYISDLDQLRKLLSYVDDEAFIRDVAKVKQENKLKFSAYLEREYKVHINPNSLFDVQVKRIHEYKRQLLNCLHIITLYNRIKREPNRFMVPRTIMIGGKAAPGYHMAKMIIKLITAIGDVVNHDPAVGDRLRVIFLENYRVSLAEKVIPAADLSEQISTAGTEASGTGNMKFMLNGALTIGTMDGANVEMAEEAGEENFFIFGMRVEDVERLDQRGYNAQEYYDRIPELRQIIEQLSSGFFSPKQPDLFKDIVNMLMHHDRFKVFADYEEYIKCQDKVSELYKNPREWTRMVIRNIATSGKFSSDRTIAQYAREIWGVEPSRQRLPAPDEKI

Structure (SMILES): O=P(O)(O)c1ccc(-c2cc(O)on2)o1 [Compound C2, 5-(5-hydroxyl-isoxazol-3-yl)-furan-2-phosphonic acid]
- effect on enzyme activity [1]: None of these enzymes were affected
- effect on enzyme activity [2]: None of these enzymes were affected

Structure (SMILES): CC(C)C(=O)OCOP(=O)(OCOC(=O)C(C)C)c1ccc(C2=NOC(=O)C2)o1 [Compound C13]
- kinase activation in cells [3]: unresponsive
